pEC50, pIC50: −log10 of the molar value.
Columns and labels:
[1] = molecular target: Keap1 (Homo sapiens, UniProt Q14145); experiment: WB of Keap1 in OCI-AML2 cells (soluble/insoluble phase); assay type: cell-based; parameters: endogenous in cells; host or cells: OCI-AML2; details: OCI-AML2 cells, 20 h treatment; for pEC50: read-out: EC50 (Keap1 downregulation, WB)
Description: (§1) Cells were incubated with DMSO at 0.1% or with compound in concentrations ranging 10–20,000 nM for 20 h unless indicated differently. Following incubation, lysis was performed in RIPA buffer and the samples were measured for total protein quantification by BCA assay (Thermo Fisher Scientific, 23225). Then, 20–40 μg of each sample was loaded and run on an SDS–PAGE gel, before transferring onto a nitrocellulose membrane using a Trans-Blot Turbo system (Bio-Rad) and blocking using a 5% BSA in TBS-T (w/v) solution for 1 h at room temperature. Incubation with primary antibodies (mouse anti-BCL-6 (sc-7388, Santa Cruz, 1:500; overnight at 4 °C), mouse anti-Keap1 (sc-365626, Santa Cruz, 1:500; overnight at 4 °C), rabbit anti-LDHA (4H18L6, Thermo Fisher, 1:1,000; overnight at 4 °C), mouse anti-NQO2 (sc-271665, Santa Cruz, 1:500; overnight at 4 °C), rabbit anti-c-Myc (5605, Cell Signaling, 1:1,000; overnight at 4 °C) and mouse anti-β-actin (3700, Cell Signaling, 1:1,000; 1 h at room temperature) was performed and then the membranes were washed and incubated with a horseradish-peroxidase-conjugated secondary antibody (mouse 7076/rabbit 7074, Cell Signaling) at room temperature for 1 h. Imaging of the chemiluminescence signal was performed using a ChemiDoc XRS+ instrument (Bio-Rad). Primary band quantifications were normalized against β-actin bands.

[2] = molecular target: T1, recombinant NQO2 (Homo sapiens, UniProt P16083); experiment: DLS of recombinant NQO2; assay type: biochemical; details: recombinant NQO2, room temperature, over time
T1 construct: made in house; host or cells: E. coli BL21(DE3)
T1 sequence (P16083 1-231): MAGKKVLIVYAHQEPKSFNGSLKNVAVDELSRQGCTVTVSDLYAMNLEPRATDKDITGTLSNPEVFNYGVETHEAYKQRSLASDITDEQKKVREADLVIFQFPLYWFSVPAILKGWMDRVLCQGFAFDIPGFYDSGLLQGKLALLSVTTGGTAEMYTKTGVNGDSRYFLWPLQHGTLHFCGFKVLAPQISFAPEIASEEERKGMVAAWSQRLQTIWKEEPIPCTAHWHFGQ
Description: (§2) DLS samples were prepared in the respective protein’s elution buffer, to which 0.01% Tween was added, along with the compound from a DMSO stock to obtain a final DMSO concentration of 2%. Samples were prepared at room temperature and measured at a constant temperature of 25 °C. All samples were passed through 0.1-μm filters and then placed in a clear-bottom black 384-well plate. DLS data were recorded using a DynaproPlate Reader III (Wyatt Technology). Data were processed with the supplied DYNAMICS software.

[3] = molecular target: T2, recombinant Keap1 BTB (Homo sapiens, UniProt Q14145, S172A); experiment: DLS of recombinant Keap1 BTB domain; assay type: biochemical; details: 50 μM Keap1 BTB, 50 μM compound, room temperature, over time
T2 construct: The Keap1 BTB domain (48–180) encoding the single substitution S172A was cloned into pET28-bdSumo vector; His–bdSumo (N, cleaved yes); made in house; host or cells: E. coli BL21(DE3)
T2 sequence (Q14145 48-180 S172A): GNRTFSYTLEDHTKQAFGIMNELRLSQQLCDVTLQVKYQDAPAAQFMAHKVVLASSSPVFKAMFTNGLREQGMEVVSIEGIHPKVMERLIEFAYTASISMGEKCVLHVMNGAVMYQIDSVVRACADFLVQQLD
Description: as §2

[4] = tested on: HEK 293 cells; experiment: Viability measurements, HEK 293 cells; assay type: cell-based; details: HEK 293 cells (lack BCL6 expression), 72 h
Description: (§3) Cells were seeded in a transparent-bottom, black 96-well plate, at 15,000 cells per well in sixfold replications. in 90 µl of medium and left to adhere for at least 4 h. The cells were then treated with the respective compound by adding 10 µl of medium–-compound mixture for a final volume of 100 µl in each well. Cell-Titer blue reagent was used to measure viability according to the manufacturer’s instructions. Plate reader measurements were performed on a Tecan Spark Control 10 M fluorescence system.

[5] = tested on: c-Myc; experiment: WB of c-Myc protein levels in Mino cells; assay type: cell-based; details: 20 h
Description: as §1

[6] = tested on: Mino cells; experiment: Viability measurements, Mino cells; assay type: cell-based; details: Mino cells, 72 h
Description: as §3

[7] = tested on: Ramos cells; experiment: Viability measurements, Ramos cells; assay type: cell-based; details: Ramos cells, 72 h
Description: as §3

[8] = molecular target: T3, BCL6 (Homo sapiens, UniProt P41182); experiment: WB of BCL6 levels in Mino cells (soluble/insoluble fraction); assay type: cell-based; details: 20 h incubation
T3 construct: in Mino cells, as BCL6 is mostly expressed in B cells; endogenous in cells; host or cells: Mino (ATCC CRL-3000)
Description: Cells were incubated with DMSO at 0.1% or with compound in concentrations ranging 10–20,000 nM for 20 h unless indicated differently. […] Then, 20–40 μg of each sample was loaded and run on an SDS–PAGE gel, before transferring onto a nitrocellulose membrane using a Trans-Blot Turbo system (Bio-Rad) and blocking using a 5% BSA in TBS-T (w/v) solution for 1 h at room temperature. […] Imaging of the chemiluminescence signal was performed using a ChemiDoc XRS+ instrument (Bio-Rad). Primary band quantifications were normalized against β-actin bands.

[9] = tested on: NQO1 expression; experiment: qPCR for NQO1 expression in OCI-AML2 cells after washout; assay type: cell-based; details: OCI-AML2, 250 nM 20 h, from 48 h after treatment
Description: Cells were treated with either DMSO or compound at 250 nM, followed by washing out the treated medium after 20 h and reseeding in fresh medium. Cells were then collected at several time points post washout. Total RNA was extracted using RNeasy mini kit (Qiagen, 74104). […] PCR amplification was carried out in Step-One Plus thermocycler (Applied Biosystems). Relative quantification was performed using standard curves. GAPDH was used for normalization.

[10] = tested on: OCI-AML2 cells; experiment: Viability measurements, OCI-AML2 cells; assay type: cell-based; details: OCI-AML2, 72 h
Description: as §3

[11] = tested on: Nrf2; experiment: WB of Nrf2; assay type: cell-based; details: U2OS cells, 20 h compound treatment
[12] = tested on: U2OS cells; experiment: Viability measurements, U2OS cells; assay type: cell-based; details: 72 h
Description: as §3

[13] = molecular target: Keap1 and BCL6 (Homo sapiens, UniProt P41182+Q14145); experiment: WB of Keap1 and BCL6 in Mino cells (hetero-PINCH); assay type: cell-based; parameters: Mino cells that express high levels of BCL6; endogenous in cells; host or cells: Mino; OCI-AML2; details: 20 h
Description: as §1

Chain of Keap1 (Q14145 whole entry): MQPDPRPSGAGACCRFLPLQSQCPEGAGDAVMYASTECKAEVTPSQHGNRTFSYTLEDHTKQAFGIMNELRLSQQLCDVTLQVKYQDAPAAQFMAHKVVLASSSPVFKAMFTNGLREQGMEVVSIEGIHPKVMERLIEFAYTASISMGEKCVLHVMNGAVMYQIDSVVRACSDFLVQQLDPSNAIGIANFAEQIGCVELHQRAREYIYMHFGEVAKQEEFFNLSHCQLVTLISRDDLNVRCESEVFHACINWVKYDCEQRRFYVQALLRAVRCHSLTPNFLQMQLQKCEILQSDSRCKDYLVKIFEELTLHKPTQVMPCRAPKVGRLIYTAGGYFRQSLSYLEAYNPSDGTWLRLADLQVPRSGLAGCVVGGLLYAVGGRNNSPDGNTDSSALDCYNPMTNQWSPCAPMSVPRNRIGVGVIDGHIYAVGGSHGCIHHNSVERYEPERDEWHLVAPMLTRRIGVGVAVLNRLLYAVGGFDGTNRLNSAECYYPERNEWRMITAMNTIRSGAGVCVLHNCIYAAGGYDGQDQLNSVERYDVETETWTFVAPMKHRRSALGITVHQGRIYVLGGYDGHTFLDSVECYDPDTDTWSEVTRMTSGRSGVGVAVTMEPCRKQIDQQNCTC

In the case of CC1(C)CCC2(C(=O)NCC(=O)N3CCN(C(=O)CNC(=O)C45CCC(C)(C)CC4C4C(=O)C=C6C7(C)C=C(C#N)C(=O)C(C)(C)C7CCC6(C)C4(C)CC5)CC3)CCC3(C)C(C(=O)C=C4C5(C)C=C(C#N)C(=O)C(C)(C)C5CCC43C)C2C1 (stereo not shown) [EL174], the “Keap1 in soluble and insoluble fraction (WB activity)” value [1] was “no activity”.
For Cc1ccc(-c2cn3cccc(C)c3n2)cc1S(=O)(=O)N1CCN(C(=O)CCOCCOCCOCCOCCOCCOCCOCCOCCOCCOCCC(=O)N2CCN(S(=O)(=O)c3cc(-c4cn5cccc(C)c5n4)ccc3C)CC2)CC1 [EL241], the “formation of larger species (DLS)” value [2] was “little to no effect in polymerizing NQO2”.
In the case of CC1(C)CCC2(C(=O)NCCCCCCNC(=O)C34CCC(C)(C)CC3C3C(=O)C=C5C6(C)C=C(C#N)C(=O)C(C)(C)C6CCC5(C)C3(C)CC4)CCC3(C)C(C(=O)C=C4C5(C)C=C(C#N)C(=O)C(C)(C)C5CCC43C)C2C1 (stereo not shown) [EL132], the “formation of large species (DLS)” value [3] was “formation of large species over time” and the pEC50 [1] was 5.99.
CC1(C)CCC2(C(=O)NCCOCCOCCOCCOCCOCCOCCNC(=O)C34CCC(C)(C)CC3C3C(=O)C=C5C6(C)C=C(C#N)C(=O)C(C)(C)C6CCC5(C)C3(C)CC4)CCC3(C)C(C(=O)C=C4C5(C)C=C(C#N)C(=O)C(C)(C)C5CCC43C)C2C1 (stereo not shown) [EL152] was tested, and the pEC50 [1] was 6.04.
For CNC(=O)COc1cc2cc(Nc3nc(N4C[C@H](C)C[C@H](C)C4)ncc3Cl)ccc2n(C)c1=O [BI-3802, reference compound], the effect on viability [4] was “no compound affected the viability”, the “c-Myc protein levels (WB)” value [5] was “no such effect on c-Myc” and the effect on viability [6] was “no viability effect”. The effect on viability [7] was “no viability effect” and the “BCL6 in soluble and insoluble fraction (WB)” value [8] was “no accumulation in the insoluble fraction”.
CC1(C)CCC2(C(=O)NCCOCCNC(=O)C34CCC(C)(C)CC3C3C(=O)C=C5C6(C)C=C(C#N)C(=O)C(C)(C)C6CCC5(C)C3(C)CC4)CCC3(C)C(C(=O)C=C4C5(C)C=C(C#N)C(=O)C(C)(C)C5CCC43C)C2C1 (stereo not shown) [EL147] was tested, and the “Keap1 in soluble and insoluble fraction (WB activity)” value [1] was “no activity”.
In the case of Bardoxolone [BDX, reference compound], the “formation of large species (DLS)” value [3] was “did not appear”, the “duration of NQO1 upregulation after washout” value [9] was “returned closer to its original level” and the pIC50 [10] was 6.00. For the same molecule, the “Nrf2 levels (WB)” value [11] was “Nrf2 upregulation” and the pIC50 [12] was 6.14.
CC1(C)CCC2(C(=O)NCCOCCOCCOCCNC(=O)C34CCC(C)(C)CC3C3C(=O)C=C5C6(C)C=C(C#N)C(=O)C(C)(C)C6CCC5(C)C3(C)CC4)CCC3(C)C(C(=O)C=C4C5(C)C=C(C#N)C(=O)C(C)(C)C5CCC43C)C2C1 (stereo not shown) [EL151] was tested, and the “Keap1 in soluble and insoluble fraction (WB activity)” value [1] was “no activity”.
In the case of Cc1ccc(-c2cn3cccc(C)c3n2)cc1S(=O)(=O)N1CCN(C(=O)COCC(=O)N2CCN(S(=O)(=O)c3cc(-c4cn5cccc(C)c5n4)ccc3C)CC2)CC1 [EL244], the “formation of larger species (DLS)” value [2] was “ability to form larger species in solution”.
In the case of Cc1ccc(-c2cn3cccc(C)c3n2)cc1S(=O)(=O)N1CCN(C(=O)COCCOCC(=O)N2CCN(S(=O)(=O)c3cc(-c4cn5cccc(C)c5n4)ccc3C)CC2)CC1 [EL245], the “formation of larger species (DLS)” value [2] was “ability to form larger species in solution”.
For Cc1ccc(-c2cn3cccc(C)c3n2)cc1S(=O)(=O)N1CCN(C(=O)COCCOCCOCC(=O)N2CCN(S(=O)(=O)c3cc(-c4cn5cccc(C)c5n4)ccc3C)CC2)CC1 [EL246], the “formation of larger species (DLS)” value [2] was “ability to form larger species in solution”.
In the case of CC1(C)CCC2(C(=O)NCCSCCSCCNC(=O)C34CCC(C)(C)CC3C3C(=O)C=C5C6(C)C=C(C#N)C(=O)C(C)(C)C6CCC5(C)C3(C)CC4)CCC3(C)C(C(=O)C=C4C5(C)C=C(C#N)C(=O)C(C)(C)C5CCC43C)C2C1 (stereo not shown) [EL164], the pEC50 [1] was 6.36.
CC1(C)CCC2(C(=O)NCCN3CCN(CCNC(=O)C45CCC(C)(C)CC4C4C(=O)C=C6C7(C)C=C(C#N)C(=O)C(C)(C)C7CCC6(C)C4(C)CC5)CC3)CCC3(C)C(C(=O)C=C4C5(C)C=C(C#N)C(=O)C(C)(C)C5CCC43C)C2C1 (stereo not shown) [EL165] was tested, and the “formation of large species (DLS)” value [3] was “formation of large species over time” and the pEC50 [1] was 6.47.
With CC1(C)CCC2(C(=O)NCC3CCC(CNC(=O)C45CCC(C)(C)CC4C4C(=O)C=C6C7(C)C=C(C#N)C(=O)C(C)(C)C7CCC6(C)C4(C)CC5)CC3)CCC3(C)C(C(=O)C=C4C5(C)C=C(C#N)C(=O)C(C)(C)C5CCC43C)C2C1 (stereo not shown) [EL159] the “Keap1 in soluble and insoluble fraction (WB activity)” value [1] was “no activity”.
For CC1(C)CCC2(C(=O)NCCOCCOCCOCCOCCOCCOCCOCCOCCOCCOCCOCCOCCOCCNC(=O)C34CCC(C)(C)CC3C3C(=O)C=C5C6(C)C=C(C#N)C(=O)C(C)(C)C6CCC5(C)C3(C)CC4)CCC3(C)C(C(=O)C=C4C5(C)C=C(C#N)C(=O)C(C)(C)C5CCC43C)C2C1 (stereo not shown) [EL229], the “Keap1 in soluble and insoluble fraction (WB activity)” value [1] was “reduced Keap1 in the cell’s soluble fraction and induced its accumulation in the insoluble fraction”.
In the case of CC1(C)CC[C@]2(C(=O)NCCOCCOCCOCCOCCOCCOCCOCCOCCOCCOCCOCCOCCOCCN)CC[C@]3(C)[C@H](C(=O)C=C4[C@@]5(C)C=C(C#N)C(=O)C(C)(C)[C@@H]5CC[C@]43C)[C@@H]2C1 [compound 24], the “Keap1 and BCL6 levels in soluble/insoluble phase (WB)” value [13] was “did not induce such effects on either target”.
For CC1(C)CCC2(C(=O)NCCCCCCCCNC(=O)C34CCC(C)(C)CC3C3C(=O)C=C5C6(C)C=C(C#N)C(=O)C(C)(C)C6CCC5(C)C3(C)CC4)CCC3(C)C(C(=O)C=C4C5(C)C=C(C#N)C(=O)C(C)(C)C5CCC43C)C2C1 (stereo not shown) [EL163], the “Keap1 in soluble and insoluble fraction (WB activity)” value [1] was “no activity”.
For COc1cc(Nc2cc(NCc3cccc(S(=O)(=O)F)c3)ccc2Cl)cc2cc(OCC(=O)NCCOCCOCCOCCOCCOCCOCCOCCOCCOCCOCCOCCOCCOCCN)c(=O)n(C)c12 [compound 23], the “Keap1 and BCL6 levels in soluble/insoluble phase (WB)” value [13] was “did not induce such effects on either target”.

From PMC13503280, “A pharmacological modality to sequester homomeric proteins” (Nature Chemical Biology, 2026)
